Measurements taken from PMC4774911, “Biochemical Screening of Five Protein Kinases from Plasmodium falciparum against 14,000 Cell-Active Compounds” (PLoS ONE, 2016).
Several values for one entry are separate records, joined by “and”; a condition that tells them apart may be missing. Equal entries are not always repeated.

How the values were obtained:
Experiment in all cases: biochemical
EPHB6 = target: T1, EPHB6 (Homo sapiens, UniProt O15197)
T1 sequence (O15197 1-1021): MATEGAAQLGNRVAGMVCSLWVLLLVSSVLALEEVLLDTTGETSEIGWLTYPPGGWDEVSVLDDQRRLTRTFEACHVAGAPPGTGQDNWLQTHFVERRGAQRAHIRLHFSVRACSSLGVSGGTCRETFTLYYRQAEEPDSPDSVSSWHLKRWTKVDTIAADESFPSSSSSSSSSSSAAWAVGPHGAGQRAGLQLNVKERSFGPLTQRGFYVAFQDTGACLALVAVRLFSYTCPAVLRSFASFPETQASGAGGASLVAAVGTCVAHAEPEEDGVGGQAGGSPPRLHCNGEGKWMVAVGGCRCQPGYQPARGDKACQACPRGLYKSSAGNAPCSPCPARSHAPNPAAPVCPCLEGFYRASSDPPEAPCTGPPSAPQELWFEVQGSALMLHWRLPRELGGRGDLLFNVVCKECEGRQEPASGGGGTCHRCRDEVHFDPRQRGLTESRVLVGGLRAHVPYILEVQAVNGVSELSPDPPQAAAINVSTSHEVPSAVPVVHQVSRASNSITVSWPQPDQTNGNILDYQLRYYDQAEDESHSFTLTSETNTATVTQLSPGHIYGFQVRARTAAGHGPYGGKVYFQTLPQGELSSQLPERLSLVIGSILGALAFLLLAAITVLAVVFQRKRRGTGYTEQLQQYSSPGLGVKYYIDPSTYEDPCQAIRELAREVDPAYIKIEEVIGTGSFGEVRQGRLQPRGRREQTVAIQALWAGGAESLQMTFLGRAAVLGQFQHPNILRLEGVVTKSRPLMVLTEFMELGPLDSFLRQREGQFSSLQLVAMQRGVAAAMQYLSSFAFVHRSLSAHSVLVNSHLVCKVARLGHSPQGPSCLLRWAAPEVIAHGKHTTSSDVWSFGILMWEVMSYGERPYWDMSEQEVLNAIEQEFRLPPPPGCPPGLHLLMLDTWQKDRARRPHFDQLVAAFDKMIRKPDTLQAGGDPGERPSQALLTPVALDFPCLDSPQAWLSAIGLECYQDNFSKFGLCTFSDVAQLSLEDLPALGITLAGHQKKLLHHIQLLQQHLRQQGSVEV

SIK2 = SIK2 (Homo sapiens, UniProt Q9H0K1)
PIM2 = PIM2 (Homo sapiens, UniProt Q9P1W9)
MAP3K6 = target: T2, MAP3K6 (Homo sapiens, UniProt O95382)
T2 sequence (O95382 1-1288): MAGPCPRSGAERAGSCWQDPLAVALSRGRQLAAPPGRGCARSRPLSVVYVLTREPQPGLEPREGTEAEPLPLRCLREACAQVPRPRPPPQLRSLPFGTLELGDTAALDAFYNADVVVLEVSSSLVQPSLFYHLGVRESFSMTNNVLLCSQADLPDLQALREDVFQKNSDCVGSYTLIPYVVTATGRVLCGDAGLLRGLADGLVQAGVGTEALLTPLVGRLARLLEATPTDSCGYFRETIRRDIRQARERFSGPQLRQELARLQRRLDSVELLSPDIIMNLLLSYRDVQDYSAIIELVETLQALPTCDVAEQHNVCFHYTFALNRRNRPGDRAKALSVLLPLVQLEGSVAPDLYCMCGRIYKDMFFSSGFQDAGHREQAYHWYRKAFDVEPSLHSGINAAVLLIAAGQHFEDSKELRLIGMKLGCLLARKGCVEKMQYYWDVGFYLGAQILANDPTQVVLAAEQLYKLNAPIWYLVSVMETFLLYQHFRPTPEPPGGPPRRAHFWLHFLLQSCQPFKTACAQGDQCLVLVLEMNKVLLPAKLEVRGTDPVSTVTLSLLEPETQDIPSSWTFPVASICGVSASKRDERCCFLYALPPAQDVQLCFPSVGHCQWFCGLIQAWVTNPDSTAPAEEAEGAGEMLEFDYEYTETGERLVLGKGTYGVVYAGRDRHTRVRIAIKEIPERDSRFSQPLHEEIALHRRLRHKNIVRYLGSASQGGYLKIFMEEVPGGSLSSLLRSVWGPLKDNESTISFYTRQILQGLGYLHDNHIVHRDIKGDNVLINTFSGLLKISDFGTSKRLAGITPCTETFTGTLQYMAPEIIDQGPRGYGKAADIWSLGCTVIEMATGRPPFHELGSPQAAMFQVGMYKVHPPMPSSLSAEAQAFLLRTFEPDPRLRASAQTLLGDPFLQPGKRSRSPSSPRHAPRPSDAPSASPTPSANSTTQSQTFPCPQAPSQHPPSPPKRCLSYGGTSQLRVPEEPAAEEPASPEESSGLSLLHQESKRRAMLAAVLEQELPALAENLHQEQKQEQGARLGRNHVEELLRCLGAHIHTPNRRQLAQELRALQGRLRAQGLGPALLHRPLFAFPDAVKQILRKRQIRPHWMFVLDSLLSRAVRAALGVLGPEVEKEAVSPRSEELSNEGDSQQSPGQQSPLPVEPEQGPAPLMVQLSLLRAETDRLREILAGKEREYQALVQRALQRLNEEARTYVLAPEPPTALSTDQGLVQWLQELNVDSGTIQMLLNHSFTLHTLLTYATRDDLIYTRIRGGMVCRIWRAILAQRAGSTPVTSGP

YES1 = YES1 (Homo sapiens, UniProt P07947)
STK11 = target: T3, STK11 (Homo sapiens, UniProt Q15831)
T3 sequence (Q15831 1-433): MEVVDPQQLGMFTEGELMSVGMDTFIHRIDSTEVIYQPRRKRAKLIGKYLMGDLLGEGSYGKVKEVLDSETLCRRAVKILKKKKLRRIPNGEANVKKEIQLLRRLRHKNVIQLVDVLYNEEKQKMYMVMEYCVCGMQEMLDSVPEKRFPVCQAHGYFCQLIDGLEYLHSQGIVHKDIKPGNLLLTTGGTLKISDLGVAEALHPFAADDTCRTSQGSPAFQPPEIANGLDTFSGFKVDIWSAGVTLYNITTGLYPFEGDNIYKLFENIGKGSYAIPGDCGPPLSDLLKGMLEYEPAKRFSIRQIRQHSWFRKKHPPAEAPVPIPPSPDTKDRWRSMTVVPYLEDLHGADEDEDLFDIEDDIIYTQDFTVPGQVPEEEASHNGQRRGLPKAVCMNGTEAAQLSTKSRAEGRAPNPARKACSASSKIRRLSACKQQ

PRKCD = PRKCD (Homo sapiens, UniProt Q05655)
Sequence of PRKCD (Q05655 whole entry): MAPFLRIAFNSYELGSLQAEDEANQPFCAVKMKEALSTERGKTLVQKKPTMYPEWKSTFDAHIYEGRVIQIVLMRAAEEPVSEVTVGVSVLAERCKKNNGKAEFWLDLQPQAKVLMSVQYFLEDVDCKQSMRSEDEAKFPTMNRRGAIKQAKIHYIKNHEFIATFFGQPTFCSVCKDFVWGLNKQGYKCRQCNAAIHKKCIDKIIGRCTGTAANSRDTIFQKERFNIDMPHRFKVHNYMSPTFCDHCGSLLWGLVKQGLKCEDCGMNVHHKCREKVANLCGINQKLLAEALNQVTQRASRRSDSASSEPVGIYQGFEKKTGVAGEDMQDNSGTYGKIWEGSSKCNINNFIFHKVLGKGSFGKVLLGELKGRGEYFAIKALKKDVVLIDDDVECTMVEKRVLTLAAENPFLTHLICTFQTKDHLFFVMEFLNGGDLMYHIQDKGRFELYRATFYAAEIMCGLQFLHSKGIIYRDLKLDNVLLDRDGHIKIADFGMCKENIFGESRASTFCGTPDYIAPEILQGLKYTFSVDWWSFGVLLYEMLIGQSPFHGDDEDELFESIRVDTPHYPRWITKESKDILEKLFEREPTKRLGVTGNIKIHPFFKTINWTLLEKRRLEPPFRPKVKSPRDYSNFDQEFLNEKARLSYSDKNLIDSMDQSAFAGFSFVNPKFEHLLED

Sequence of YES1 (P07947 whole entry): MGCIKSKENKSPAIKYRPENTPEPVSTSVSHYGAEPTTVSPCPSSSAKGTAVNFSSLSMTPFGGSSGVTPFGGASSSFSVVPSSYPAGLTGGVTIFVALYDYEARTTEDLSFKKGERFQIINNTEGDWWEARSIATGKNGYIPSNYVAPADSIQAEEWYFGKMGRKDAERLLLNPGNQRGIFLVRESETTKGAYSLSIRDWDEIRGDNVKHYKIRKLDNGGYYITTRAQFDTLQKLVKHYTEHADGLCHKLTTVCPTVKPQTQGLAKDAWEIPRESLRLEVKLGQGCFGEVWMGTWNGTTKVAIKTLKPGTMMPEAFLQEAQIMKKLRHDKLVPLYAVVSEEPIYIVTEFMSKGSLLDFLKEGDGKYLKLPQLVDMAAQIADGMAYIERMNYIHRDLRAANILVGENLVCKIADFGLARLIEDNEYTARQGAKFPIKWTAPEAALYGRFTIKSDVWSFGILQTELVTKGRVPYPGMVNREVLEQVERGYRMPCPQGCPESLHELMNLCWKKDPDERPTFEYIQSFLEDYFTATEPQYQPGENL
Sequence of PIM2 (Q9P1W9 whole entry): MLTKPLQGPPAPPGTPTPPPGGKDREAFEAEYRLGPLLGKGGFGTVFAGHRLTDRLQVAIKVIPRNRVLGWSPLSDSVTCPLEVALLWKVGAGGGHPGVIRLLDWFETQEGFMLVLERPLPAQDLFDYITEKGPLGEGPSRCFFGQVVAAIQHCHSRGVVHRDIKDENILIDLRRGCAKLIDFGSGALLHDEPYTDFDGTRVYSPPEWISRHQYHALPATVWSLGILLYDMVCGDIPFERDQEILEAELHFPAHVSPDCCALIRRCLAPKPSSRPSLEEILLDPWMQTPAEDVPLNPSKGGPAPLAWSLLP
Sequence of SIK2 (Q9H0K1 whole entry): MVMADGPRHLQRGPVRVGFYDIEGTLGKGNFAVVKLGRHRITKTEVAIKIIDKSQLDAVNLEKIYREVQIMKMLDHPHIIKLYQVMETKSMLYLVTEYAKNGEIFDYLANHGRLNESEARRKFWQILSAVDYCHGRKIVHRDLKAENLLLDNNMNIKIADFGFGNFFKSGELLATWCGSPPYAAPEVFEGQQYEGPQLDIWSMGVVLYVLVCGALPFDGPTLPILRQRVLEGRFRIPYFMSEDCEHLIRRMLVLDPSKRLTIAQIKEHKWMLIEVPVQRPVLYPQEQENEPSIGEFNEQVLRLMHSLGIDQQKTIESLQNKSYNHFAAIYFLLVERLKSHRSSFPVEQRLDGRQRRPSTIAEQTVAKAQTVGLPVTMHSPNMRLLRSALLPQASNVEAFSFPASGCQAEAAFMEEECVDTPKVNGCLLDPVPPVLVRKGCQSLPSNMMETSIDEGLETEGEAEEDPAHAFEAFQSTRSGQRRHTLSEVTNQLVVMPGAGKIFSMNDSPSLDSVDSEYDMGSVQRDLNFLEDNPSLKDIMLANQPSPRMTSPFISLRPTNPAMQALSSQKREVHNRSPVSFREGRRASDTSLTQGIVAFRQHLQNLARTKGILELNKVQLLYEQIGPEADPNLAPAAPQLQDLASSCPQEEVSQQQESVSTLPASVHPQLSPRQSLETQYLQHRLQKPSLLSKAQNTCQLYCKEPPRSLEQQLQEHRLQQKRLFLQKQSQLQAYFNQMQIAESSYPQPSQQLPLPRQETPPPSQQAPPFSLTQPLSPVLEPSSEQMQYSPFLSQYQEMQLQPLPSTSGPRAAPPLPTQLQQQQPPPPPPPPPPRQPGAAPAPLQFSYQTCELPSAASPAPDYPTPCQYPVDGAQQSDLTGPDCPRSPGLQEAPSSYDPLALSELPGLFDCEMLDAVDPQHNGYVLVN

Row | Structure (SMILES) | IC50 (EPHB6) [µM] | IC50 (SIK2) | IC50 (PIM2) [µM] | IC50 (MAP3K6) | IC50 (YES1) | IC50 (STK11) [µM] | IC50 (PRKCD) [µM]
1 | CN(C)CC(O)COc1ccc(Nc2ncc([N+](=O)[O-])c(Nc3ccccc3O)n2)cc1.O=C(O)C(F)(F)F (stereo not drawn) [TCMDC-141399] | > 20 | > 20 µM | > 20 | > 20 µM | > 20 µM | 4.4 | > 20
2 | Cl.NCC1(c2nc(-c3ccc(Cl)c(O)c3)c(-c3ccncc3)[nH]2)CCCCC1 [TCMDC-141154] | > 20 | 0.57 µM and 0.53 µM | > 20 | > 20 µM | 4.4 µM and 7.7 µM | 1.4 | 1
3 | CN1CCN(c2ccc(Nc3ncc(C#N)c(Nc4ccccc4C(N)=O)n3)cc2)CC1.Cl [TCMDC-134116] | > 20 | ≤ 0.032 µM and 0.035 µM | 4.8 | 1.6 µM and 1.4 µM | 0.12 µM and 0.15 µM | 1 | 0.85
